Assays:
Format in all cases: cell-based
[1] = test system: Normal Human Dermal Fibroblasts (NHDFs); assay: Colonization of acellular area (IBIDI gap closure), fibroblasts; details: for NHDF Migration (+MMC) (colonization of acellular area vs ethanol control): presence of mitomycin C, 6 h and 24 h contact, cell gives time of significant effect
Experimental: (§1) The study consists in an in vitro assay aiming to evaluate the properties of E4 and E2 at 4 concentrations each on keratinocytes and fibroblasts. In this assay, the measurement of the colonization of a standard acellular surface generated from a confluent monolayer of cells using a dedicated culture device (IBIDI chamber) is performed. The assay is performed in absence and in presence of a proliferation inhibitor to focus on cell proliferation and migration or on migration only, respectively.
Normal Human foreskin-derived Dermal Fibroblast (NHDFs, ATCC) cells were grown in phenol-free Dulbecco's Modified Eagle Medium (DMEM, ThermoFisher Scientific) supplemented with 10% of Foetal Bovine Serum (FBS, ThermoFisher Scientific), L-glutamine and antibiotics. The cells were maintained in a humidified incubator at 37° C. with a 5% CO2 atmosphere.
(§2) Cells were plated in 2-well silicone inserts with a defined cell free gap (IBIDI chambers; IBIDI GmbH, 80209) that was previously inserted on 12-well culture plates. This culture device allows to create a standardized 500 μm±100 μm cell free gap for monitoring cell colonization. 24 h after seeding, when the culture reached high confluency, cells in the insert were treated, or not, with mitomycin C (MMC) at 10 μg/ml during 2 h. After these 2 hours, the insert was removed, and cells were treated with E2 or E4 in presence or not of MMC for additional 2 h. Then, if appropriate, the culture medium was removed and cells were treated with E2 or E4 for 22 h, in absence of MMC.
(§3) For the assay, keratinocytes were plated in Epilife medium without HKGS and all the treatments were performed in this medium. Fibroblasts were plated in DMEM medium containing only 2.5% of FBS and the treatments were performed in absence of FBS.
(§4) E2 and E4 were applied at 4 concentrations each (10^−7M, 10^−8M, 10^−9M, 10^−10M). In parallel, cells were treated with a positive control (HKGS 1% for human keratinocytes and PDGF-BB at 10 ng/ml for human fibroblasts).
(§5) To monitor cell colonization and to evaluate the gap closure rate, pictures of the gap were taken after different times: at time 0 h, corresponding to the beginning of the treatment with E2 or E4 and to the removal of the culture insert, at time 6 h and at time 24 h (corresponding to the end of the treatments with E2 or E4). Pictures were taken with a microscope Zeiss (Axiover 25-10× objective) and with a camera Invenio2EIII (DeltaPix—Lux-Optic). The colonized areas were quantified from the pictures by the use of the WimAsis platform—WimScratch software. For each insert, 3 pictures were taken at each time. As each condition was performed in triplicates, it means a total of 9 pictures per condition and per time point of acquisition

human dermal fibroblasts = assay: Wound healing gene expression RT-qPCR array, fibroblasts; details: 10^−7M, 15 h, relative to ethanol control
Excerpt: The healing properties of E4 were investigated at the transcriptional level by studying gene expression changes by RT-qPCR. 84 genes qPCR arrays focusing on the wound healing process were used. These arrays contain genes important for the three phases of wound healing process, including extra-cellular matrix (ECM) remodeling factors, inflammatory cytokines and chemokines as well as growth factors and major signaling molecules. The changes in gene expression were interpreted in a dermo cosmetic context in order to highlight the potential benefits of the E4 towards wound healing.
After 24 h seeded on 25 cm^2 culture flasks (T25), cells were treated with E4 during 15 h. The culture conditions were the same as the one used for the scratch test (see Example 2) and cells were treated with E4 in absence of FBS/HKGS. The cell density used for gene expression assay was lower than the ones used for the scratch tests: 15 800 cells/cm^2 for gene expression assay vs 113 636 cell/cm^2 for keratinocytes and 100 000 cells/cm^2 for fibroblasts in culture inserts for wound closure assay.
At the end of the 15 h treatment with E4 10^−7M or ethanol 0.1% used as control, total RNAs were extracted using the Qiagen RNeasy kit (Qiagen). Cells were rinsed with cold PBS and lysed in the ad hoc buffer provided in the kit. Extraction was performed according to the supplier's recommendations. The collected RNAs were stored at −80° C.
The RNA concentration was determined by spectrophotometric measurement (QIAxpert, Qiagen) and the RNA quality was analyzed by capillarity electrophoresis (Agilent Bioanalyzer 2100—Agilent RNA 6000 Nano Kit).
Reverse transcription was performed with kit “RT2 First Strand Kit” (Qiagen) from total RNA according to the manufacturer's instructions.
The qPCR method was used to quantify the expression changes of specific markers in the cDNA populations. The arrays “RT2 Profiler PCR Array human wound healing” containing specific primers for 84 target genes.
The amplification of target genes was performed following the supplier's recommendations thanks to a “HotStart Taq DNA Polymerase” and to the use of SYBR Green as detection method. The SYBR Green is a marker emitting fluorescence once inserted between the paired bases of nucleic acids. The fluorescence intensity is thus directly proportional to the quantity of produced amplicons.
The qPCRs were run using the Quantstudio7 Real-Time PCR System (Applied Biosystems) and its software (QuantStudio real time PCR Software v1.3. software, Applied Biosystems).
The data obtained for E4 treated conditions were compared to the ethanol control in both cell types. The threshold cycles (Ct) values were normalized to the mean of Ct of several housekeeping genes present on the array (indicated in the table below). The maximum Ct cut-off value was fixed at 36 cycles meaning that Ct values above 36 were not considered in the analysis.

[2] = test system: Normal Human Epidermal Keratinocytes (NHEKs); assay: Colonization of acellular area (IBIDI gap closure), keratinocytes; details: 6 h and 24 h contact, cell gives time of significant effect; for NHEK Proliferation & Migration (colonization of acellular area vs ethanol control): absence of MMC; for NHEK Migration (+MMC) (colonization of acellular area vs ethanol control): presence of mitomycin C
Experimental: as §1
The study was performed using cultures of Normal Human foreskin-derived Epidermal Keratinocytes (NHEKs, Lonza). The cells were grown in serum free Epilife medium (ThermoFisher Scientific) supplemented with Human Keratinocyte Growth Supplement (HKGS, ThermoFisher Scientific) and antibiotics. The cells were maintained in a humidified incubator at 37° C. with a 5% CO2 atmosphere.
as §2, §3, §4, §5

Structure (SMILES): C[C@]12CC[C@@H]3c4ccc(O)cc4CC[C@H]3[C@@H]1[C@@H](O)[C@@H](O)[C@@H]2O [E4, 1,3,5 (10)-estratrien-3,15alpha,16alpha,17beta-tetrol]
- NHDF Migration (+MMC) (colonization of acellular area vs ethanol control) ([1]; 10^−7M): significantly increase the colonization of the acellular area
- NHDF Migration (+MMC) (colonization of acellular area vs ethanol control) ([1]; 10^−8M): significantly increase the colonization of the acellular area
- NHDF colonization of the cell-free area ([1]; absence of MMC, all four concentrations): not able to significantly increase
- COL1A2 (Collagen alpha-2(I) chain) expression, FC (human dermal fibroblasts): 0.9445 Fold Change (FC)
- CTGF (CCN family member 2) expression, FC (human dermal fibroblasts): 0.7643 Fold Change (FC)
- MAPK1 (Mitogen-activated protein kinase 1) expression, FC (human dermal fibroblasts): 0.9284 Fold Change (FC)
- MMP7 (Matrix metalloproteinase-7; Matrilysin) expression, FC (human dermal fibroblasts): 1.1451 Fold Change (FC)
- SERPINE1 (Plasminogen activator inhibitor 1) expression, FC (human dermal fibroblasts): 0.8516 Fold Change (FC)
- VTN (Vitronectin) expression, FC (human dermal fibroblasts): 0.7652 Fold Change (FC)
- WNT5A (Protein Wnt-5a) expression, FC (human dermal fibroblasts): 0.8930 Fold Change (FC)
- NHEK Proliferation & Migration (colonization of acellular area vs ethanol control) ([2]; 10^−7M): significantly increased the colonization of the acellular area
- NHEK Migration (+MMC) (colonization of acellular area vs ethanol control) ([2]; 10^−7M): significantly increased the colonization of the acellular area
- NHEK Proliferation & Migration (colonization of acellular area vs ethanol control) ([2]; 10^−10M): significantly increased the colonization of the acellular area
- NHEK Migration (+MMC) (colonization of acellular area vs ethanol control) ([2]; 10^−10M): significantly increased the colonization of the acellular area

— patent US20250099485A1, “COMPOSITIONS FOR PROMOTING HAIR GROWTH” (ESTETRA SRL, priority 2021, published 2025)
